Reference: paper PMC5924614 (European journal of medicinal chemistry, 2018)

How the values were obtained:
SU-DHL-1 cells [1] = test: cell death / toxicity observed in SU-DHL-1 cells during blot experiments; format: cell-based
NCI-H2228 cells = test: NCI-H2228 cell proliferation, CellTiter-Glo cell viability assay; format: cell-based, human
[2] = test system: ALK tyrosine 1507 (Y1507) phosphorylation (Y527 in NPM-ALK); test: ALK Y1507 phosphorylation in SU-DHL-1 cells by western blot; format: cell-based, human; details: for inhibition at 0.1 µM: Homo sapiens, read-out: inhibition of ALK Y1507 phosphorylation; for treatment time after which p-ALK was significantly inhibited: SU-DHL-1 cells, 30 nM, time course
[3] = test system: STAT3 tyrosine 705 (Y705) phosphorylation; test: STAT3 Y705 phosphorylation in SU-DHL-1 cells by western blot; format: cell-based, human; details: for inhibition at 0.1 µM: Homo sapiens, SU-DHL-1, read-out: inhibition of STAT3 Y705 phosphorylation; for treatment time after which p-STAT3 was significantly inhibited: SU-DHL-1 cells, 30 nM, time course
NPM-ALK fusion protein = NPM-ALK fusion protein (Homo sapiens, UniProt P06748+Q9UM73); test: NPM-ALK fusion protein levels in SU-DHL-1 cells by western blot; format: cell-based; details: for duration of NPM-ALK degradation and ALK signaling inhibition / time at which significant (>50%) NPM-ALK degradation was achieved / time of maximum degradation of NPM-ALK / effect on fused ALK (NPM-ALK) protein levels: 30 nM; for duration of NPM-ALK degradation and ALK signaling inhibition / time at which significant (>50%) NPM-ALK degradation was achieved / time of maximum degradation of NPM-ALK: time course; for reduction of the ALK fusion protein levels: 100 nM; for reduction of the ALK fusion protein levels / effect on fused ALK (NPM-ALK) protein levels: 16 h; for hook effect: up to 100 nM degrader
[4] = test system: EML4-ALK fusion protein variant 3; details: NCI-H2228 cells; for duration of EML4-ALK degradation and signaling pathway inhibition / time of maximum degradation of EML4-ALK: 60 nM, time course; for reduction of EML4-ALK protein levels / effect on EML4-ALK protein levels: 100 nM, 16 h
[5] = tolerability in the mouse PK study; details: 50 mg/kg IP
mouse pharmacokinetic = format: in vivo, male Swiss Albino mice; details: single 50 mg/kg IP
[6] = test system: ALK downstream signaling (p-ALK, p-STAT3); test: ALK downstream signaling pathway inhibition in SU-DHL-1 cells by western blot; format: cell-based, human; details: 30 nM
SU-DHL-1 cells [7] = test: SU-DHL-1 cell proliferation, CellTiter-Glo luminescent cell viability assay; format: cell-based, human; details: 3 days

| Compound | concentrations leading to significant cell death / toxic to cells (SU-DHL-1 cells [1]) | sensitivity of proliferation in comparison with SU-DHL-1 cells (NCI-H2228 cells) | inhibition at 0.1 µM [2] [%] | treatment time after which p-ALK was significantly inhibited [2] [h] | inhibition at 0.1 µM [3] [%] | treatment time after which p-STAT3 was significantly inhibited [3] [h] | duration of NPM-ALK degradation and ALK signaling inhibition (NPM-ALK fusion protein) | time at which significant (>50%) NPM-ALK degradation was achieved (NPM-ALK fusion protein) [h] | time of maximum degradation of NPM-ALK (NPM-ALK fusion protein) [h] | reduction of the ALK fusion protein levels (NPM-ALK fusion protein) | hook effect (NPM-ALK fusion protein) | duration of EML4-ALK degradation and signaling pathway inhibition [4] | time of maximum degradation of EML4-ALK [4] [h] | reduction of EML4-ALK protein levels [4] | fold less active than corresponding degrader in signaling pathway inhibition [6] | cell growth inhibition (SU-DHL-1 cells [7]) | effect on fused ALK (NPM-ALK) protein levels (NPM-ALK fusion protein) | effect on EML4-ALK protein levels [4] | other results |
| --- | --- | --- | --- | --- | --- | --- | --- | --- | --- | --- | --- | --- | --- | --- | --- | --- | --- | --- | --- |
| Cc1cc(Nc2ncc(Cl)c(Nc3ccccc3S(=O)(=O)C(C)C)n2)c(OC(C)C)cc1C1CCN(CC(=O)NCCOCCOCCOCCOCCOCCNc2cccc3c2C(=O)N(C2CCC(=O)NC2=O)C3=O)CC1 (stereo not shown) [Compound 5, 2-(4-(4-((5-Chloro-4-((2-(isopropylsulfonyl)phenyl)amino)pyrimidin-2-yl)amino)-5-isopropoxy-2-methylphenyl)piperidin-1-yl)-N-(17-((2-(2,6-dioxopiperidin-3-yl)-1,3-dioxoisoindolin-4-yl)amino)-3,6,9,12,15-pentaoxaheptadecyl)acetamide] | above 100 nM | less sensitive | > 90 | 2 | > 90 | 2 | at least 24 hours | 4 | 16 | Over 90% | did not observe the “hook effect” | at least 24 hours | 16 | Over 90% |  |  |  |  |  |
| Cc1cc(Nc2ncc(Cl)c(Nc3ccccc3S(=O)(=O)C(C)C)n2)c(OC(C)C)cc1C1CCN(CC(=O)NCCNc2cccc3c2C(=O)N(C2CCC(=O)NC2=O)C3=O)CC1 (stereo not shown) [Compound 6, 2-(4-(4-((5-chloro-4-((2-(isopropylsulfonyl)phenyl)amino)pyrimidin-2-yl)amino)-5-isopropoxy-2-methylphenyl)piperidin-1-yl)-N-(2-((2-(2,6-dioxopiperidin-3-yl)-1,3-dioxoisoindolin-4-yl)amino)ethyl)acetamide] | above 100 nM | less sensitive | > 90 | 2 | > 90 | 2 | at least 24 hours | 4 | 16 | Over 90% | did not observe the “hook effect” | at least 24 hours | 16 | Over 90% |  |  |  |  | clinical signs [5]: no clinical signs were observed; tolerability [5]: well tolerated; highest plasma concentration (mouse pharmacokinetic): 3,000 nM; time of highest plasma concentration post dosing (mouse pharmacokinetic): 2 h |
| Cc1cc(Nc2ncc(Cl)c(Nc3ccccc3S(=O)(=O)C(C)C)n2)c(OC(C)C)cc1C1CCN(CC(=O)NCCOCCOCCOCCOCCOCCNc2cccc3c2C(=O)N(C2CCC(=O)N(C)C2=O)C3=O)CC1 (stereo not shown) [Compound 7, 2-(4-(4-((5-Chloro-4-((2-(isopropylsulfonyl)phenyl)amino)pyrimidin-2-yl)amino)-5-isopropoxy-2-methylphenyl)piperidin-1-yl)-N-(17-((2-(1-methyl-2,6-dioxopiperidin-3-yl)-1,3-dioxoisoindolin-4-yl)amino)-3,6,9,12,15-pentaoxaheptadecyl)acetamide] |  | less sensitive |  |  |  |  |  |  |  |  |  |  |  |  | over 10 fold | incomplete inhibition | did not reduce | did not significantly affect |  |
| Cc1cc(Nc2ncc(Cl)c(Nc3ccccc3S(=O)(=O)C(C)C)n2)c(OC(C)C)cc1C1CCN(CC(=O)NCCNc2cccc3c2C(=O)N(C2CCC(=O)N(C)C2=O)C3=O)CC1 (stereo not shown) [Compound 8, 2-(4-(4-((5-chloro-4-((2-(isopropylsulfonyl)phenyl)amino)pyrimidin-2-yl)amino)-5-isopropoxy-2-methylphenyl)piperidin-1-yl)-N-(2-((2-(1-methyl-2,6-dioxopiperidin-3-yl)-1,3-dioxoisoindolin-4-yl)amino)ethyl)acetamide] |  | less sensitive |  |  |  |  |  |  |  |  |  |  |  |  | over 10 fold | incomplete inhibition | did not reduce | did not significantly affect |  |
| Cc1cc(Nc2ncc(Cl)c(Nc3ccccc3S(=O)(=O)C(C)C)n2)c(OC(C)C)cc1C1CCNCC1 [ceritinib, reference compound] | above 100 nM |  |  |  |  |  |  |  |  |  |  |  |  |  |  |  | did not significantly change | did not significantly affect | inhibition of downstream signaling compared with the degraders [6]: more potent |
